Test results taken from patent US9302993B2, “8-hydroxy quinoline derivatives” (PRANA BIOTECHNOLOGY LIMITED, priority 2002, dated 2016).

Experiments:
[1] = test system: moderately severe AD patients; test: Phase II clinical trial of PBT-1 in Alzheimer's disease (Example 21); type: in vivo, human; settings: for Steady state pre-dose levels of PBT-1: blood; for difference in mean change from baseline ADAS-cog score of PBT-1 over placebo: more-severely affected groups
From the text: The performance of the less-severely affected group (ADAS-cog<25) deteriorated negligibly over this interval, so cognitive changes could not be discriminated in this stratum.
The study took place at the AD clinical trials unit, Mental Health Research Institute of Victoria and at the Royal Melbourne Hospital. Criteria for inclusion in the study were: informed consent; a diagnosis of probable AD by NINCDS-ADRDA criteria (McKhann et al., 1984); AD Assessment Scale-cognitive (ADAS-cog) (Rosen et al., 1984) score of 18-45; Mini Mental State Examination (MMSE) (Folstein et al., 1975) score of 10-24; on donepezil 5 mg or 10 mg for at least 6 months; relative or carrier willing and able to support the trial; able to complete trial examinations; primary sensorial functions intact.
The study was a double blind, placebo-controlled, parallel group randomized design. […] The duration of the study was 36 weeks.
Screening procedures consisted of a complete medical history, physical, neurological and ophthalmic examination, blood and urine tests and psychometric tests (ADAS-cog, MMSE). Nerve conduction tests and visual evoked responses were conducted between the screening and baseline visits to provide a baseline measurement. Blood was collected for ApoE allotyping, baseline plasma levels of metals and Aβ prior to randomization. All patients continued their study entry dose of donepezil and all patients received 100 mg vitamin B12 intramuscularly every four weeks.
Blood samples were collected by antecubital venepuncture except on weeks 12, 24 and 36 when they were collected by an indwelling catheter. […] Zn data from these intervals were therefore omitted from analysis.
The primary clinical efficacy variable was a change from baseline score on the ADAS-cog conducted at baseline and at weeks 4, 12, 24 and 36. This measure was chosen to allow comparability of treatment effects with current therapeutics such as donepezil, where efficacy trials also used ADAS-cog as their primary outcome measure (Rogers et al., 1998). Although numerous neuropsychological tests could be considered as secondary measures, it was necessary to avoid fatiguing the subjects at review. Therefore the only other cognitive test was the Mini-Mental State Exam (MMSE). The CIBIC+ (clinician interview based impression of change incorporating caregiver information), a subjective observational index was also conducted. Plasma Aβ, and plasma zinc and copper were all taken every four weeks.
Polystyrene plates were coated with mAb G210 (for Aβ40) or mAb G211 (for Aβ42). Plates were washed and biotinylated mAb WO2 was added. Bound antibody was detected with streptavidin-labelled Europium (Perkin Elmer, Vic Australia). The values obtained from triplicated wells were calculated based on standard curves generated on each plate. Plasma samples supplemented with synthetic Aβ1-40 and Aβ1-42 were also assayed to confirm measurement reliability across the concentration range of interest.
Metals were measured by inductively coupled plasma mass spectrometry as previously described (Cherny et al., 2001).
Standard adverse event reporting was conducted and biochemical tests, renal and liver function, complete blood examination, serum vitamin B12 and folate levels were documented at each visit. To assess for peripheral and optic neuropathy a neurological examination was conducted at each visit, and visual evoked responses, nerve conduction studies and ophthalmic examination were conducted at screening, week 16 and prior to the final trial visit. An ECG was done at screening and weeks 12, 24 and 36.
Data monitoring and management were undertaken by independent contractors (Kendle International and Health Research Solutions, Melbourne). Evidence for efficacy was indicated by a significant difference in change from baseline between treatment arms. […]

APP2576 transgenic mouse = settings: previous studies on transgenic mice, 20-30 mg/kg orally daily five days per week, 2-3 months; cited from earlier work

Oc1c(I)cc(Cl)c2cccnc12 [PBT-1]
effect on plasma Cu ([1]; AD patients): no effect | elevation of total plasma Zn ([1]; AD patients): ≈ 30% | Steady state pre-dose levels of PBT-1 ([1]; total daily dosage 250 mg): 4.03 ± 2.10 µg/mL | Steady state pre-dose levels of PBT-1 ([1]; total daily dosage 500 mg): 6.74 ± 3.70 µg/mL | Steady state pre-dose levels of PBT-1 ([1]; total daily dosage 750 mg): 7.60 ± 2.15 µg/mL | Plasma Aβ42 change from baseline ([1]; from week 20 onwards): significant decline from baseline | difference in mean change from baseline ADAS-cog score of PBT-1 over placebo ([1]; week 24): 7.37 | difference in mean change from baseline ADAS-cog score of PBT-1 over placebo ([1]; week 36): 6.36 | effect of treatment in preventing cognitive deterioration ([1]; over 36 weeks, more-severely affected patients (baseline ADAS-cog≧25)): statistically significant | inhibiting Aβ accumulation (APP2576 transgenic mouse): markedly effective
